We go through one compound from patent US20240415828A1, “TLR7 AGONIST AND COMBINATIONS FOR CANCER TREATMENT” (BIONTECH SE, priority 2021, published 2024).

The subject of data set [1] is Human whole blood. The experiment in a line: Cytokine release in human whole blood treated in vitro (CBA). It is filed as cell-based. On the procedure:
FIG. 7. Release of certain cytokines upon treatment of whole blood from human donors with BNT411 at various concentrations. Whole blood drawn from healthy human volunteers was treated in vitro with BNT411 to investigate the induction of the following cytokines/chemokines: IFNα, IP-10, IL-6, and TNFα. BNT411 concentrations ranging from 0.1 nM (1×) to 7.5 μM (75000×). The fold increase to baseline is shown for each cytokine and BNT411 concentration tested.
After performing a serial dilution of the test compounds (such as BNT411), 5 μL of each sample is transferred/pipetted to single wells of a 96-well-plate. As negative control, plasma which has been prepared from whole blood of each donor is used. Subsequently, 245 μL of RPMI-medium is added to each well, leading to a 1:50 dilution of each sample, named spiking solutions. The heparinized whole blood is pipetted to separate 96-well-plate. After seeding whole blood, the prepared spiking solutions are added: 190 μL of whole blood is seeded in each well and 10 μL of spiking solutions is added to get a final volume of 200 μL per well and additional 1:20 dilution of all samples. Finally, the plates are incubated at 37° C. and 5% CO2. After 24 h incubation the plates are centrifuged at 500×g for 5 min. The plasma of all samples is harvested, transferred to a new 96-well-plate and frozen at −15° C. to −25° C. until performing the CBA, but at least 3 h.
The CBA is performed with the frozen/thawed plasma samples according to the manufacturer's instructions for ProCarta multiplex kits. For evaluation of cytokine concentrations, assay duplicates of all samples are measured by using the luminex system. After checking standard curves with the instrument control system (Bio-Plex Manager 4.1.1) the raw data are transferred to excel. Graphical analysis is performed with GraphPad Prism 6.
Human whole blood was obtained from healthy donors and treated in vitro with BNT411 (concentration range: 0.1 nM to […]). 24 h after stimulation secretion of several cytokines, including IFNα, IP-10, IL-6, and TNFα, was analyzed by a multiplexed CBA.

The subject of data set [2] is CT26 colon carcinoma cells. The experiment in a line: CT26 tumor model, BNT411 alone (Example 3). It is filed as in vivo, mouse. On the procedure:
FIG. 4. Anti-tumoral efficacy of BNT411 alone in a tumor mouse model. Mice (n=12 or 13 per group) subcutaneously inoculated with 5×10^5 CT26 colon carcinoma cells were used as tumor mouse model. BNT411 was administered i.v. at a dose level of 3 mg/kg eight times with 4 to 5 days interval (on days 14, 19, 23, 28, 33, 37, 42, and 47). A control group (n=13) received vehicle alone. Adaptive immunity was evaluated by analyzing gp70-antigen-specific T cell populations in blood and splenocytes 3 and 5 weeks after the first study drug administration. (A) Dosing schedule. (B) Graph showing the tumor volumes vs. days after inoculation. Group mean tumor volumes for all live animals are shown. Additionally, tumor volumes of animals that were euthanized due to tumor load were carried forward for as long as they were larger than the group median tumor volume (SEM: standard error of the mean; LOCF: last observation carried forward values).
Serum levels of IFNα were measured by sandwich ELISA (Pbl Assay Systems) according to manufacturer's instructions.
BALB/c mice were inoculated s.c. with 2.5×10^5−5×10^5 CT26-WT into the flank, respectively. Once tumors reached palpable sizes, mice were randomly divided into treatment and control groups. Tumor volume was measured unblinded with a caliper and calculated using the formula (a×b^2)/2 (a being the largest and b being the smallest diameter of the tumor). Tumor growth was documented as mean tumor size with standard error disregarding single distant outliers. Treatment was initiated after 7-10 d with tumors having reached an average volume of about 10 mm^3. 3 mg/kg (75 μg/mouse; BALB/c mice) BNT411 was administered by i.v. injection to the retro-orbital venous plexus. Control groups received an equal volume of 100 μl saline vehicle (0.1% 1 M HCl, 0.1% 1 M NaOH, 99.8% isotonic NaCl solution pH 5.63).
Eight doses of BNT411 were administered i.v. at a dose level of 3 mg/kg eight times with 4 to 5 days interval (on days 14, 19, 23, 28, 33, 37, 42, and 47); cf., FIG. 4A. […] A control group (n=13) received vehicle alone. Adaptive immunity was evaluated by analyzing gp70-antigen-specific T cell populations in blood and splenocytes 3 and 5 weeks after the first study drug administration. Gp70 is the immune dominant CD8^+ T-cell recognized antigen of the CT26 tumor model.

Turning to `COCCc1nc2c(N)nc3ccccc3c2n1CCCCN(C(C)=O)C1CCOCC1` [BNT411], in data set [1] (FIG. 7), the “concentrations required for inducing secretion of pyrogenic proinflammatory cytokines (e.g., TNFα) relative to IFNα” value is reported as “up to two orders of magnitude higher”. Further, in data set [1] (human whole blood, 24 h), the “IFNα secretion induced at fold lower concentrations than needed for induction of IL-6, TNFα, and IL-10” value is reported as 5- to 25 fold; the “concentration at which IL-6, TNFa and IL-10 start to be induced” value was “about 0.06 μM”; the “concentration at which significant IFNα release was induced” value amounted to 0.012 µM; the “concentration for maximal induction of IFNα, fold lower than for maximal induction of IL-6, TNFα, and IL-10” value is on record as 25- to 100 fold. The “tumor growth inhibition, test/control value” in data set [2] (3 mg/kg i.v. eight times, day 35) is listed as 43.3%. The animals still alive in data set [2] (3 mg/kg i.v., day 49, last day of the experiment) was 8 of 13. Further, in data set [2] (1 h after the first dosing, 3 mg/kg i.v.), the “increase in blood IFNα levels compared with the control group” value is listed as 50 fold. Besides, the “frequency of gp70+ T-cells in blood” value in data set [2] (day 35) is recorded as 8.72%. Besides, the “frequency of gp70+ T-cells in splenocytes” value in data set [2] (day 50) is 0.76%. The “blood parameters (alanine transaminase, aspartate transaminase, creatine kinase, glutamate dehydrogenase, lactate dehydrogenase, bilirubin) vs control group” value in data set [2] (serum, day 19) is on record as “comparable”.
